Consider 15 molecules from patent publication US6362369B1, “Phthalic acid diamide derivatives fluorine-containing aniline compounds as starting material, agricultural and horticultural insecticides, and a method for application of the insecticides” (Nihon Nohyaku Co., Ltd., priority 1997, dated 2002).

Type in all cases: in vivo
For test [1], the system named is diamondback moth (Plutella xylostella). In words: Insecticidal effect on diamondback moth (Test Example 1). As to conditions: for Insecticidal effect, Test Example 1 / Insecticidal effect (Test Example 1), judged from mortality: diamondback moth; for Insecticidal effect (Test Example 1), judged from mortality: judged by the criterion of Test Example 1. Put shortly:
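Oviposition by adults on Chinese cabbage seedling; immersion; air-dry; 25° C room. Count of hatched larvae at day 6 post-immersion → mortality → effect graded by criterion. Triplicate, 10 insects/group.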

Test [2] has as its system common cutworm (Spodoptera Litura). The test is described as follows: Insecticidal effect on common cutworm (Test Example 2). As to conditions: 500 ppm, 25° C.; for Insecticidal effect, Test Example 2: cabbage leaf immersed; for Insecticidal effect (Test Example 2), judged from mortality: 8 days after inoculation. Put shortly:
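2nd-instar larvae on air-dried treatment, closed dish, 25° C; dead/alive counted at day 8. Mortality calculated, graded by criterion. 3 × 10 insects.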

In test [3] the test system is rice leafroller (Cnaphalocrocis medinalis). In words: Insecticidal effect on rice leafroller (Test Example 3). The conditions noted are these: 500 ppm, 25° C., humidity 70%; for Insecticidal effect, Test Example 3: rice lamina immersed; for Insecticidal effect (Test Example 3), judged from mortality: 4 days after inoculation. Put shortly:
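Insecticidal effect is judged by a predefined criterion from dead/alive counts four days after infesting air-dried lamina with third-instar larvae, kept on moistened filter paper at 25° C, 70% humidity.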

Setting [4] is: judged by the mortality criterion of Test Example 1.
[5] abbreviates: second-instar larvae of common cutworm, eight days after inoculation.
Setting [6] is: third-instar larvae of rice leafroller, four days after inoculation.
The mark [7] stands for this setting: cabbage leaf dip, second-instar larvae of common cutworm.
Where [8] appears, read: rice lamina dip, third-instar larvae of rice leafroller.
Where [9] appears, read: mortality judged by criterion of Test Example 1.
[10] abbreviates: common cutworm second-instar larvae, eight days after inoculation.
Setting [11] is: rice leafroller third-instar larvae, four days after inoculation.

Each structure is given as a SMILES string.

`Cc1cc(OC(F)F)ccc1NC(=O)c1cccc(I)c1C(=O)NC(C)C` [compound 387, N^1-(4-difluoromethoxy-2-methylphenyl)-3-iodo-N^2-isopropylphthalic acid diamide]: in test [1] (setting [4]), the “Insecticidal effect, Test Example 1” value is “A (100)”. In addition, the “Insecticidal effect, Test Example 2” value in test [2] (setting [5]) is “A (100)”. Further, the “Insecticidal effect, Test Example 3” value in test [3] (setting [6]) was “A (100)”.

For `CC(C)NC(=O)c1c(I)cccc1C(=O)Nc1ccc(C(F)(F)C(F)(F)F)cc1Br` [compound 1580], the “Insecticidal effect (Test Example 1), judged from mortality” value in test [1] is reported as “A (100)”. In addition, the “Insecticidal effect (Test Example 2), judged from mortality” value in test [2] (setting [7]) was “A (100)”. Also, the “Insecticidal effect (Test Example 3), judged from mortality” value in test [3] (setting [8]) is “A (100)”.

For the molecule `Cc1cc(OC(F)(F)C(F)F)c(Cl)cc1NC(=O)c1cccc(I)c1C(=O)NC(C)C` [compound 391], in test [1] (setting [4]), the “Insecticidal effect, Test Example 1” value is “A (100)”. Also, the “Insecticidal effect, Test Example 2” value in test [2] (setting [5]) is “A (100)”. Moreover, in test [3] (setting [6]), the “Insecticidal effect, Test Example 3” value is “A (100)”.

As to `CC(C)NC(=O)c1c(Cl)cccc1C(=O)Nc1ccc(Cl)cc1Cl` [compound 112], in test [1] (setting [4]), the “Insecticidal effect, Test Example 1” value was “A (100)”. Moreover, the “Insecticidal effect, Test Example 2” value in test [2] (setting [5]) is given as “A (100)”. In test [3] (setting [6]), the “Insecticidal effect, Test Example 3” value is “A (100)”.

As for `CCC(CC)NC(=O)c1c(I)cccc1C(=O)Nc1ccc(C(F)(F)C(F)(F)F)cc1C` [compound 1011], in test [1] (setting [9]), the “Insecticidal effect, Test Example 1” value is listed as “A (100)”. In addition, the “Insecticidal effect, Test Example 2” value in test [2] (setting [10]) is “A (100)”. Besides, the “Insecticidal effect, Test Example 3” value in test [3] (setting [11]) is “A (100)”.

With `C#CC(C)(C)NC(=O)c1cccc(Cl)c1C(=O)Nc1ccc(C(F)(F)C(F)(F)F)cc1C` [compound 1467], in test [1], the “Insecticidal effect (Test Example 1), judged from mortality” value is given as “A (100)”. Also, the “Insecticidal effect (Test Example 2), judged from mortality” value in test [2] (setting [7]) is “A (100)”. For the same molecule, in test [3] (setting [8]), the “Insecticidal effect (Test Example 3), judged from mortality” value is on record as “A (100)”.

Consider `CC(C)NC(=O)c1c(C(=O)Nc2ccc([S+]([O-])C(F)(F)F)cc2)cccc1[N+](=O)[O-]` (stereo not drawn) [compound 1000], for which the “Insecticidal effect, Test Example 1” value in test [1] (setting [9]) is “A (100)”. The “Insecticidal effect, Test Example 2” value in test [2] (setting [10]) is on record as “D (79-50)”. Besides, the “Insecticidal effect, Test Example 3” value in test [3] (setting [11]) was “A (100)”.

For `Cc1cc(OC(F)(F)C(F)Cl)ccc1NC(=O)c1cccc(Cl)c1C(=O)NC(C)C` (stereo not drawn) [compound 143], the “Insecticidal effect, Test Example 1” value in test [1] (setting [4]) is recorded as “A (100)”. Also, the “Insecticidal effect, Test Example 2” value in test [2] (setting [5]) is given as “A (100)”. Moreover, in test [3] (setting [6]), the “Insecticidal effect, Test Example 3” value is listed as “A (100)”.

In the case of `CCC(C)(C)NC(=O)c1c(I)cccc1C(=O)Nc1ccc(C(F)(F)C(F)(F)F)cc1C` [compound 1565], the “Insecticidal effect (Test Example 1), judged from mortality” value in test [1] is given as “A (100)”. In addition, the “Insecticidal effect (Test Example 2), judged from mortality” value in test [2] (setting [7]) is on record as “A (100)”. The “Insecticidal effect (Test Example 3), judged from mortality” value in test [3] (setting [8]) was “A (100)”.

With `CC(C)NC(=O)c1c(I)cccc1C(=O)Nc1ccc(SC(F)F)cc1` [compound 354], the “Insecticidal effect, Test Example 1” value in test [1] (setting [4]) is listed as “A (100)”. Also, the “Insecticidal effect, Test Example 2” value in test [2] (setting [5]) is on record as “A (100)”. In addition, the “Insecticidal effect, Test Example 3” value in test [3] (setting [6]) was “A (100)”.

For `Cc1cc(C(F)(F)C(F)(F)F)ccc1NC(=O)c1cccc(I)c1C(=O)NC(C)c1ccccn1` (stereo not drawn) [compound 1777], the “Insecticidal effect (Test Example 1), judged from mortality” value in test [1] was “A (100)”. For the same molecule, in test [2] (setting [7]), the “Insecticidal effect (Test Example 2), judged from mortality” value was “A (100)”. For the same molecule, in test [3] (setting [8]), the “Insecticidal effect (Test Example 3), judged from mortality” value is recorded as “A (100)”.

Turning to `Cc1c(NC(=O)c2c(I)cccc2C(=O)NC(C)C)cccc1C(F)(F)F` [compound 435], the “Insecticidal effect, Test Example 1” value in test [1] (setting [4]) is on record as “A (100)”. For the same molecule, in test [2] (setting [5]), the “Insecticidal effect, Test Example 2” value is given as “B (99-90)”. Further, the “Insecticidal effect, Test Example 3” value in test [3] (setting [6]) was “A (100)”.

For the molecule `CC(C)(C)NC(=O)c1c(I)cccc1C(=O)Nc1ccc(SC(F)(F)F)cc1` [compound 1127], the “Insecticidal effect, Test Example 1” value in test [1] (setting [9]) is on record as “A (100)”. In test [2] (setting [10]), the “Insecticidal effect, Test Example 2” value is recorded as “A (100)”. Further, the “Insecticidal effect, Test Example 3” value in test [3] (setting [11]) was “A (100)”.

As for `CC(C)NC(=O)c1c(I)cccc1C(=O)Nc1ccc(C(F)(F)C(F)(F)F)cc1` [compound 895], the “Insecticidal effect on diamondback moth (Test Example 1), judged grade” value in test [1] (mortality judged according to the criterion shown in Test Example 1) was “A (100)”. Moreover, in test [2] (cabbage leaf dip, second-instar larvae, eight days after inoculation), the “Insecticidal effect on common cutworm (Test Example 2), judged grade” value was “A (100)”. Besides, in test [3] (rice lamina dip, third-instar larvae, four days after inoculation), the “Insecticidal effect on rice leafroller (Test Example 3), judged grade” value is “A (100)”.

Take `Cc1cc(C(F)(F)C(F)(F)F)ccc1NC(=O)c1cccc(C)c1C(=O)NC(C)C` [compound 953]: the “Insecticidal effect, Test Example 1” value in test [1] (setting [9]) is listed as “A (100)”. Further, the “Insecticidal effect, Test Example 2” value in test [2] (setting [10]) is reported as “A (100)”. For the same molecule, in test [3] (setting [11]), the “Insecticidal effect, Test Example 3” value is on record as “A (100)”.
